SMILES	melting point
Cc1c(-c2cccnc2)n(CCCCCC(=O)O)c2ccc(Cl)cc12	137 to 141 °C
[N-]=[N+]=NCC1=C(C(=O)O)N2C(=O)C(NC(=O)Cc3csc(=O)s3)C2SC1 (stereo not given)	160 °C
C=CCc1cc2c(C)cc(=O)oc2c(C)c1O	166 to 167 °C
CCOC1Cc2cc3ccc(=O)oc3c(OC)c2O1 (stereo not given)	119 to 120 °C
O=C(NN=Cc1ccc2ccccc2n1)c1ccccc1	171 °C
CC(C)(C)C(=O)OCc1nc(-c2cc(C(C)(C)C)c(O)c(C(C)(C)C)c2)cs1	115 to 116 °C
CCOC(=O)c1ncn2c1CN(C)C(=O)c1ccccc1-2	163 to 165 °C
COC(=O)CNc1ccc2c(c1)OCO2	105 to 106 °C
CC(C)n1cc(-c2c(-c3ccccc3F)nn3ccncc23)ccc1=O	150 to 151 °C
CCN1c2ncccc2C(=O)N(C)c2ccc(-c3c[nH]c(C(C)=O)c3)nc21	219 to 220 °C
CC1C(=O)N(c2ccccc2)N=C1N (stereo not given)	147 °C
NC(=O)c1c(Br)cc(Br)c(CC(=O)O)c1Br	245 °C
OC1(Cc2ccccc2)CCN(CCC#Cc2ccccc2)CC1	80 to 82 °C
CCN(CC)C(=O)N(C)C(=O)Nc1ccccc1	88 to 89.5 °C
O=C(NCCCCOc1ccc(-n2ccnc2)cc1)c1ccc(F)cc1	122 to 123 °C
CCCn1c(I)c2c3c(cccc31)C1CC(NC(=O)N(CC)CC)CN(C)C1C2 (stereo not given)	114 to 117 °C
COC/C(=C1/SC(=O)NC1=O)c1cccc2ccccc12	133 to 134 °C
COc1cc2c(cc1OC)-c1n[nH]c(Nc3cc(Cl)cc(Cl)c3)c1C2	> 270 °C
Cc1ccc(S(=O)(=O)Nc2ccc(C(=O)CN3CCN(c4ccncc4)CC3)cc2)cc1	168 to 170 °C
Cc1ccc(C(c2ccccc2)C(O)CN(C)C)cc1 (stereo not given)	55 to 58 °C
O=C(O)CN1C(=O)C2(COc3cc4c(cc32)CCO4)c2c(Cl)cccc21 (stereo not given)	228 to 229 °C

SMILES	melting point
COc1ccc2c(c1)CCC1C2CCC2(C)C1CCC2N(C)CCOCCO (stereo not given)	102 °C
O=[N+]([O-])c1ccc(C(Nc2ccccc2)P(=O)(Oc2ccccc2)Oc2ccccc2)cc1 (stereo not given)	158 to 160 °C
COC(=O)COc1cc2cccnc2c(-c2cccc([N+](=O)[O-])c2)n1	160 to 162 °C
CCCC(=O)c1cnc2nc(C)c(OCC)cc2c1O	240 to 241 °C
CCOC(=O)c1ccc(OCc2ccc(C3CCN(C(=O)OC(C)(C)C)CC3)cn2)cc1F	92 to 95 °C
Cc1nn(CC(O)c2ccc(Cl)cc2)c(=O)n1-c1ccc(N2CCN(c3ccc(O)cc3)CC2)cc1 (single isomer, unassigned; (+))	249 °C
CS(=O)(=O)c1ccc(-n2c(-c3ccc(F)cc3)nc(O)c(C#N)c2=O)cc1	> 285 °C
Cc1ccc(N2C(=O)C(O)=C(C(=O)c3ccc(-c4ccccn4)cc3)C2c2ccc(OC(F)(F)F)cc2)nn1 (stereo not given)	247 to 249 °C
CC1CC(=O)N(c2ccccc2)c2cc(Cl)ccc2N1C (stereo not given)	113 to 114 °C
COc1ccc(Cn2c(N)c(NC(=O)C(C)C)c(=O)[nH]c2=O)cc1OC	207 to 210 °C
CN(C(CCn1c(=O)[nH]c2ccsc2c1=O)C(=O)NO)S(=O)(=O)c1ccc(Oc2cccc(Cl)c2)cc1 (stereo not given)	192 to 194 °C
O=C(O)c1nc(SC2CCCCC2)ccc1SC1CCCCC1	100 to 101 °C
C#CCCCCn1ncc2c(N)c(C(=O)OCC=C)c(C)nc21	69 to 70 °C
O=C(CC1CCCC1)c1ccc[nH]1	49 to 51 °C
Clc1ccc(C(Cl)c2cc3cc(Br)ccc3o2)cc1 (stereo not given)	83 to 85 °C
Cn1ccc2cc(-c3cc4nccnc4[nH]3)ccc21	260 to 265 °C
CC(C)N(CCC1(c2ccccc2)C(=O)NCN2CCCCC21)C(C)C (stereo not given)	164 to 166 °C
C(=Cc1ccccc1)COC(CCc1ccccc1)Cn1ccnc1 (stereo not given)	116 to 119 °C
CC1(C)CCC(C)(C)c2cc(C(C)(O)COc3ccc(C(=O)O)c(O)c3)ccc21 (stereo not given)	170 to 171 °C
CCOC(=O)c1[nH]c(C)c(C)c1O	111 to 113 °C
NS(=O)(=O)c1ccccc1S(N)(=O)=O	250 °C

SMILES	melting point
Cc1cc(C=O)c(OCCCCCCc2ccccc2)c(C=O)c1	64 °C
CC#CCOc1ccc(S(=O)(=O)NC(CO)C(=O)OC)cc1 (stereo not given)	72 to 74 °C
O=C(O)COc1cc(Cl)ccc1C(=O)NCc1cccc(F)c1	155 °C
CCNc1c(C(=O)O)ccc(Br)c1OCC	129 to 139 °C
O=C1OC(=O)c2cc(OCCCOc3ccccc3)ccc21	96 to 98 °C
COc1ccc(Cl)c(Oc2c(C)nc(N3CCOCC3)nc2O)c1	252 °C
Cc1nc(N2CCCCC2)ccc1N1CCCn2c1nc1c(Cl)ccc(C(OC(F)F)C(F)(F)F)c12 (stereo not given)	164 to 167 °C
COC(=O)CCCNS(=O)(=O)c1ccc2ccccc2c1	123 to 125 °C
CCCCC(C)OC(=O)Nc1ccc(-c2ncn(-c3ccc(OC(F)(F)F)cc3)n2)cc1 (stereo not given)	111 to 113 °C
C#CCOc1cc(O)c2c(c1)OC(C)(C)CC2=O	122 to 124 °C
CCNc1cncc(C(=NCCc2ccccc2Cl)NC#N)c1	168 °C
COC(=O)c1ccc2c(=O)n(CC(C)C)c(CNC(=O)OC(C)(C)C)c(-c3ccc(C)cc3)c2c1	193 to 194 °C
CNC(=O)C(=O)CCCCCCSc1ccc2ccccc2c1	94 to 95 °C
CCC(C)(C)N1C(=O)C2(COc3cc4c(cc32)OCCO4)c2ccccc21 (stereo not given)	111 to 113 °C
CC(=O)ON=C(N)c1cccc(OC(C)=O)c1	128 °C
CC(Cl)(Cl)C(=O)NC(=O)C(N)=O	110 °C
C1=c2ccn3c2=C(CC1)c1nncn1-c1ccccc1-3	177 to 178 °C
Nc1sc(-c2ccc(Cl)s2)c(CN(C2CCCCC2)C2CCCCC2)c1C(=O)c1ccc(Cl)cc1	195 to 197 °C
Cc1c(Cc2cccc(C(F)(F)F)c2)sc2c(-c3cc(C(=O)NCCO)ccn3)cccc12	201 to 202 °C
COCCc1nc2c(N)nc3cc(-c4ccccc4)ccc3c2n1CCCN1CCCC1=O	187 to 191 °C
CC1c2cccc3c2N(CC3)c2ccccc2N1C(=O)CBr (stereo not given)	123 to 125 °C

Next, values leading:

melting point	SMILES
305 to 307 °C	CC1(C)C(c2ccncc2)=Nc2ccc(-c3ccc(=O)[nH]n3)cc21
185 to 191 °C	CCC1(CC(=O)O)CCC(c2ccccc2)c2c1n(C)c1cc(OCc3ccc4ccccc4n3)ccc21 (stereo not given)
163 °C	Cc1cccc(Cl)c1S(=O)(=O)NC(=O)n1nc(Br)n(N(C)C)c1=O
55 °C	CCCCCCCCCCCCCCCCCCOP(=O)(Cc1cc(Cl)c(O)c(C(C)(C)C)c1)OCCCCCCCCCCCCCCCCCC
225 to 226 °C	O=[N+]([O-])/C=C/c1c2n(c3ccccc13)CCNCC2
119 to 120 °C	CC1(C)CCC(C)(C)c2cc(CC#Cc3ccc(C(=O)NO)c(O)c3)ccc21
80 to 81 °C	CCOC(=O)c1c2c3c(cccc3n1C)CCC2
151 to 153 °C	Cc1cc(C(C)(C)CO)c(Cl)nn1
203 to 204 °C	CC(C)n1nc(-c2c(-c3ccccc3)nn3ccc(N4CCNCC4)cc23)ccc1=O
200 to 202 °C	Cc1ccc(-c2nc3ccc(N(C)C)cn3c2CN(C)C(=O)CC(C)C)cc1
53 to 57 °C	COC(=O)COC(=O)c1ccc(OCC(=O)OC)cc1
172 to 175 °C	CCn1ncc(C(=O)c2ccc(S(C)(=O)=O)cc2Cl)c1O
117 to 120 °C	CCC(CC)Nc1c([N+](=O)[O-])cc(C)c(COC(=O)NC)c1[N+](=O)[O-]
103 to 106 °C	CSCCCCC(c1cc(F)ccc1F)S(=O)(=O)c1ccc(Cl)cc1 (stereo not given)
206 to 208 °C	NS(=O)(=O)c1nc2ccc(OC(=O)Cc3ccc(Cl)cc3)cc2s1
143 to 144 °C	CS(=O)c1ccc(C2=C(c3cccc(F)c3)C(=O)C(C)(C)O2)cc1 (stereo not given)
188 to 189 °C	CCS(=O)(=O)c1nsc(NC(=O)N(C)C)c1C#N
270 °C	CNC(=O)c1ccc(C(=O)O)cc1
120 to 124 °C	COc1ccc(-c2cc(F)c3c(Cl)c(O)ccc3c2)cc1

melting point	SMILES
75 to 76 °C	O=C(NCCCCCCCCCCCCO)OC1CCN(C(=O)Oc2ccc(Oc3ccccc3)cc2)CC1
184 to 186 °C	CC(C)c1cc(C(=O)CNc2ccc(C(=O)O)cc2)oc1C(C)C
154 to 159 °C	O=C(NN1CCNC1=O)Sc1ccccc1
91 to 92 °C	Cc1c(C)c2c(c(C)c1N)[C@H](c1ccc(C(C)C)cc1)[C@H](C)O2 (relative stereo)
106 to 117 °C	CCOCCn1c(NC2CCN(CCC3(c4ccccc4)CCN(C(=O)c4cc(OC)c(OC)c(OC)c4)C3)CC2)nc2ccccc21 (single isomer, unassigned; (-))
213 to 216 °C	COc1ccc(Nc2ccnc3nc(C)c(OC(=O)COC(C)=O)cc23)cc1
144 °C	CS(=O)(=O)c1ccc(-c2cc(Cl)c(Cl)cc2-c2ccc(F)cc2)cc1
182 to 184 °C	Fc1cc(F)c2c(c1)C[C@@H](n1c(CN3CCOCC3)c[nH]c1=S)CC2
156 to 161 °C	COc1ccc(CN(C)CCCc2ccc(NC(=O)c3[nH]c4ccccc4c3C(=O)c3ccccc3)cc2)cc1OC
45 °C	CCOc1nn(-c2ccccc2Cl)c(=O)o1
153 to 155 °C	Cc1cc(Cc2ccsc2)c(NC(=O)OCc2ccccc2)c(=O)n1CC(=O)O
76 °C	CCOC(=O)C(CC)CCc1cc(-c2ccccc2)nc2ccccc12 (stereo not given)
208 to 209 °C	Cc1c(C(=O)N[C@H](C)[C@](O)(Cn2cncn2)c2ccc(F)cc2F)cnn1-c1ccc(F)cc1F
144 to 145 °C	O=C(O)CCCC#CCc1c(-c2ccccc2)nc(-c2ccccc2)n1-c1ccccc1
73 to 74 °C	CC(=O)CC(=O)CCCCCCCC(=O)CC(C)=O
195 to 197 °C	O=C(NCc1ccc(Cl)cc1)c1cn2c3c(cc(CN4CCOCC4)cc3c1=O)OCCC2
159 to 161 °C	CCOc1ccc(C(=O)OC)cc1C(N)=O
95.2 to 96.3 °C	CC(C)(C)OC(=O)NCCCc1ccc2c(n1)NCCC2

From a melting point compilation (Tetko et al.; mined from patent text by program, amines drawn as free bases though some values may be those of a salt)
